According to patent US20210008177A1 (priority 2019, published 2021):
Entries after “also recorded” stand apart in the source; their conditions may differ. Read-outs that look alike come from different tables or passages of the source.

Legend:
IL-1β = IL-1β in lumbar spinal cord tissue of mice after tolerance and hyperalgesia tests (ELISA); conditions: lumbar spinal cord homogenate of mice after 7 days of injections, cobrotoxin of sequence ID NO.1, SD in own column
SD rats = conditions: rat, in vivo
Method: Writhing test was applied to the rats, which is a chemical method used to induce pain of the peripheral origin by injection of irritant principles like acetic acid in rats. Analgesic effect of the test compound is inferred from the decrease in the frequency of writhe.
The aforementioned four groups of rats were injected with sterile saline (NaCl 0.9% 1 ml), morphine (3 mg/kg), cobrotoxin (50 ug/kg), and cobrotoxin (25 ug/kg)+morphine (1.5 mg/kg) respectively.
Following Step1, the aforementioned four groups SD rats were injected with 1.5% acetic acid solution (1 ml/rat) again 150 and 210 minutes after the initial injection of 4 different drugs respectively.

NOS = NOS activity in lumbar spinal cord tissue of mice after tolerance and hyperalgesia tests; conditions: lumbar spinal cord homogenate of mice after 7 days of injections, cobrotoxin of sequence ID NO.1, SD in own column
Kunming mice [1] = assay type: in vivo; conditions: for average pain threshold before injection, difference between physiological saline, cobrotoxin and cobrotoxin+morphine groups: day 5 through day 11
From the text: 100 Kunming mice were subjected to tail pressure tests for 4 days to measure the mechanical pain threshold and the average pain threshold will be set as the baseline pain threshold. • i. Put the mouse gently into the restraint and put its tail under the conical tip of the pain test apparatus. Press the pedal switch, and increase the pressure on the proximal end of the tail evenly until signs of the first pain response (struggle, squeaking) occurs. Record pain-inducing pressure when pain response occurs (units: g) as the value of pain threshold. The pressure was released upon reaching 700 g with no indication of a response to avoid tissue injury. Measurements were also conducted at the middle and distal ends of the tail of the same mouse with a minimum of 30 seconds time intervals between each measurement. • ii. Put the tested mice in a cage and test the next one until every mouse in the group is tested. The average of the three measurements (i.e., the proximal, mid and distal ends of each mouse tail) was used as the pain threshold (g) of each mouse when all mice were subjected to a tail pressure test. • iii. In the following 3 days, all mice underwent repeated measurements of tail pressure pain threshold. • iv. […] The mice were then randomly divided into four groups: namely ‘physiological saline group’, ‘morphine group’, ‘cobrotoxin group’ and ‘cobrotoxin+morphine group’. Each group comprised of 20 mice, which is used for the hyperalgesia and tolerance test of the corresponding drugs in the group's name. Any surplus mice were excluded. • v. Lastly, each group of 20 mice was divided randomly again into two groups, with each group comprising 10 mice, as cobrotoxin of amino acid sequence ID NO.1, and cobrotoxin of amino acid sequence ID NO. 2 will be used for parallel testing
After 4 days of measurement of the mice's baseline pain threshold described in step 1, from the fifth day to the eleventh day, the measurement of pain threshold was performed before the injection. […]

IL-6 = IL-6 in lumbar spinal cord tissue of mice after tolerance and hyperalgesia tests (ELISA); conditions: lumbar spinal cord homogenate of mice after 7 days of injections, cobrotoxin of sequence ID NO.1, SD in own column
NO = NO content in lumbar spinal cord tissue of mice after tolerance and hyperalgesia tests; conditions: lumbar spinal cord homogenate of mice after 7 days of injections, cobrotoxin of sequence ID NO.1, SD in own column
Kunming mice [2] = conditions: mouse, in vivo
From the text: To evaluate the therapeutic effects elapidea neurotoxins, one of the reliable morphine induced hyperalgesia/tolerance model in mice (Elhabazi, K et al) was created, and effects of the representative EXAMPLE compounds were investigated on the model.
100 Kunming mice were subjected to tail pressure tests for 4 days to measure the mechanical pain threshold and the average pain threshold will be set as the baseline pain threshold. • i. Put the mouse gently into the restraint and put its tail under the conical tip of the pain test apparatus. Press the pedal switch, and increase the pressure on the proximal end of the tail evenly until signs of the first pain response (struggle, squeaking) occurs. Record pain-inducing pressure when pain response occurs (units: g) as the value of pain threshold. The pressure was released upon reaching 700 g with no indication of a response to avoid tissue injury. Measurements were also conducted at the middle and distal ends of the tail of the same mouse with a minimum of 30 seconds time intervals between each measurement. • ii. Put the tested mice in a cage and test the next one until every mouse in the group is tested. […] The pain threshold of the mice measured by the tail pressure test ranged from 180 g to 220 g. […]

CN1CC[C@]23c4c5ccc(O)c4O[C@H]2[C@@H](O)C=C[C@H]3[C@H]1C5 [morphine]
IL-1β (IL-1β): significantly higher
IL-1β (IL-1β; listed as Morphine): 16.80 pg/mg protein
analgesic effect in writhing test (SD rats): lower analgesic effect; also recorded: almost no signs of any analgesic effect
number of writhing, difference within the group between 60, 150 and 210 minutes (SD rats): significant statistical difference
NOS (NOS): significantly higher
NOS (NOS; listed as Morphine): 7.56 U/mg protein
mean pain threshold before injection (hyperalgesia) (Kunming mice [1]; mouse, in vivo): significantly lower
IL-6 (IL-6): significantly higher
IL-6 (IL-6; listed as Morphine): 19.40 pg/mg protein
NO (NO): significantly higher
NO (NO; listed as Morphine): 1.61 μmol/g protein
average pain threshold one hour after injection, difference within the group between day five, eight and eleven (Kunming mice [2]): significant statistical difference
mean pain threshold one hour after injection, course within the group (tolerance) (Kunming mice [2]): significantly decreased from day 5 to day 11

B1: Cobrotoxin of amino acid sequence ID No.1 (protein)
chain: LECHNQQSSQTPTTTGCSGGETNCYKKRWRDHRGYRTERGCGCPSVKNGIEINCCTTDRCNN
modifications: Naja atra or Naja kaouthia
average pain threshold before injection, difference between physiological saline, cobrotoxin and cobrotoxin+morphine groups (Kunming mice [1]; FIG. 3, cobrotoxin of sequence ID No.1): No significant statistical differences

B2: Cobrotoxin of amino acid sequence ID No.2: mktllltllv vtivcldlgy tlechnqqss qtptttgcsg getncykkrw rdhrgyrter gcgcpsvkng ieinccttdr cnn (protein)
chain: MKTLLLTLLVVTIVCLDLGYTLECHNQQSSQTPTTTGCSGGETNCYKKRWRDHRGYRTERGCGCPSVKNGIEINCCTTDRCNN
modifications: Naja atra or Naja kaouthia
notes: mktllltllv vtivcldlgy tlechnqqss qtptttgcsg getncykkrw rdhrgyrter gcgcpsvkng ieinccttdr cnn
average pain threshold before injection, difference between physiological saline, cobrotoxin and cobrotoxin+morphine groups (Kunming mice [1]; FIG. 4, cobrotoxin of sequence ID No.2): No significant statistical differences
